Results on 2 molecules are retold here after patent US20240315952A1, “PERSONAL CARE COMPOSITION” (Conopco, Inc., d/b/a UNILEVER, priority 2020, published 2024).

In this experiment the test system is IL-1α. Kind of experiment: IL-1α expression in EpiKutis living skin equivalent (LSE) stressed with 1% SQOOH, human immunoassay kit. The class given is cell-based. The following applies: levels are raw material wt %; for IL-1α level: EpiKutis 3D reconstructed human epidermis, sample applied topically, then 3 μL of 1% SQOOH, after 72 hours; for Inhibition: inhibition of IL-1α vs 1% SQOOH control, EpiKutis LSE, 72 hours. Here is the method:
EpiKutis® living skin equivalent (LSE), is a 3D reconstructed human epidermis model with Chinese human keratinocytes through air-liquid interface culture in a defined serum free medium, supplied by supplied by Biocell (Xi'an, China). Squalene monohydroperoxide (SQOOH), a stress surrogate, was prepared in house, by subjecting squalene to solar irradiation in the presence of a sensitizer.
The SQOOH was diluted using squalene. The moringa oil was dissolved in DMSO (dimethyl sulfoxide) at a concentration of 100 mM to form a stock solution. The samples in Table 1 were prepared accordingly by diluting the materials except moringa oil and/or stock solution with PBS (phosphate-buffered saline) to the desired levels as indicated in Table 1 before use for further experiment.
The sample was applied topically to the LSE followed by application of 3 μL of 1% SQOOH. The medium was then refreshed with interval of 24 hours. After 72 hours, the tissues were collected for histology and to test the extent of viability. The IL-1a expression was evaluated using a human immunoassay kit from R&D systems (Cat. DLA 50) and tested following the manufacturer's instructions.

The term Inhibition denotes the percentage by which the read-out fell short of the control. In the case of `NC(=O)c1cccnc1` [Sample 5, Niacinamide], the IL-1α level came to 6.6 ± 0.63 pg/mL and the Inhibition is on record as 25.33%.

Regarding `NC(=O)c1cccnc1` [Sample 6, Niacinamide], the IL-1α level came to 5.8 ± 0.60 pg/mL and the Inhibition came out at 33.57%.
